ChEMBL document CHEMBL4680155, “One-pot synthesis and molecular docking of some new spiropyranindol-2-one derivatives as immunomodulatory agents and in vitro antimicrobial potential with DNA gyrase inhibitor” (Eur J Med Chem, 2020)
Converted amounts (≈) assume the structure as drawn. The source made the active and inactive calls. The calls are words filed in the database; no cut-off is given here.

Legend:
Escherichia coli [1] = assay: Antibacterial activity against Escherichia coli ATCC 25922 assessed as reduction in bacterial growth incubated for 1 day by paper disk diffusion method; assay type: functional; settings: ATCC 25922, 24 h
Candida albicans [2] = assay: Antifungal activity against Candida albicans ATCC 10231 assessed as diameter of inhibition zone at 0.5 mg/ml incubated for 24 hrs by agar diffusion method; assay type: functional; settings: for zone of inhibition at 500 µg/mL: read-out: DIZ
Salmonella typhimurium [3] = assay: Antibacterial activity against Salmonella typhi ATCC 6539 assessed as reduction in bacterial growth incubated for 1 day by paper disk diffusion method; assay type: functional, Salmonella enterica subsp. enterica serovar Typhimurium; settings: Salmonella enterica, ATCC 6539, 24 h
Candida albicans [4] = assay: Antifungal activity against Candida albicans ATCC 10231 assessed as reduction in bacterial growth incubated for 1 day by paper disk diffusion method; assay type: functional
Aspergillus brasiliensis [5] = assay: Antifungal activity against Aspergillus brasiliensis ATCC 16404 assessed as reduction in bacterial growth incubated for 3 days by paper disk diffusion method; assay type: functional
Aspergillus brasiliensis [6] = assay: Antifungal activity against Aspergillus brasiliensis ATCC 16404 assessed as diameter of inhibition zone at 0.5 mg/ml incubated for 72 hrs by agar diffusion method; assay type: functional; settings: for zone of inhibition at 500 µg/mL: read-out: DIZ
Escherichia coli [7] = assay: Antibacterial activity against Escherichia coli ATCC 25922 assessed as diameter of inhibition zone at 0.5 mg/ml incubated for 24 hrs by agar diffusion method; assay type: functional; settings: read-out: DIZ
Salmonella typhimurium [8] = assay: Antibacterial activity against Salmonella typhi ATCC 6539 assessed as diameter of inhibition zone at 0.5 mg/ml incubated for 24 hrs by agar diffusion method; assay type: functional, Salmonella enterica subsp. enterica serovar Typhimurium; settings: Salmonella enterica, read-out: DIZ
Enterococcus faecalis [9] = assay: Antibacterial activity against Enterococcus faecalis ATCC 29212 assessed as reduction in bacterial growth incubated for 1 day by paper disk diffusion method; assay type: functional; settings: ATCC 29212, 24 h
Enterococcus faecalis [10] = assay: Antibacterial activity against Enterococcus faecalis ATCC 29212 assessed as diameter of inhibition zone at 0.5 mg/ml incubated for 24 hrs by agar diffusion method; assay type: functional; settings: read-out: DIZ
Staphylococcus aureus [11] = assay: Antibacterial activity against Staphylococcus aureus ATCC 29213 assessed as reduction in bacterial growth incubated for 1 day by paper disk diffusion method; assay type: functional; settings: ATCC 29213, 24 h
Staphylococcus aureus [12] = assay: Antibacterial activity against Staphylococcus aureus ATCC 29213 assessed as diameter of inhibition zone at 0.5 mg/ml incubated for 24 hrs by agar diffusion method; assay type: functional; settings: read-out: DIZ
Enterococcus faecalis [13] = assay: Bactericidal activity against Enterococcus faecalis ATCC 29212 incubated for 24 hrs followed by transferring to freshly prepared broth medium and measured after 24 hrs by broth microdilution assay; assay type: functional; settings: time 48 hrs
Staphylococcus aureus [14] = assay: Bactericidal activity against Staphylococcus aureus ATCC 29213 incubated for 24 hrs followed by transferring to freshly prepared broth medium and measured after 24 hrs by broth microdilution assay; assay type: functional; settings: time 48 hrs
Escherichia coli [15] = assay: Bactericidal activity against Escherichia coli ATCC 25922 incubated for 24 hrs followed by transferring to freshly prepared broth medium and measured after 24 hrs by broth microdilution assay; assay type: functional; settings: time 48 hrs
Salmonella typhimurium [16] = assay: Bactericidal activity against Salmonella typhi ATCC 6539 incubated for 24 hrs followed by transferring to freshly prepared broth medium and measured after 24 hrs by broth microdilution assay; assay type: functional, Salmonella enterica subsp. enterica serovar […]; settings: Salmonella enterica, time 48 hrs

SMILES	MIC (Escherichia coli [1]) [µg/mL]	zone of inhibition at 500 µg/mL (Candida albicans [2]) [mm]	MIC (Salmonella typhimurium [3]) [µg/mL]	MIC (Candida albicans [4]; ATCC 10231, 24 h) [µg/mL]	MIC (Aspergillus brasiliensis [5]; ATCC 16404, 72 h, time 3 day) [µg/mL]	zone of inhibition at 500 µg/mL (Aspergillus brasiliensis [6]) [mm]	zone of inhibition at 500 µg/mL (Escherichia coli [7]) [mm]	zone of inhibition at 500 µg/mL (Salmonella typhimurium [8]) [mm]	MIC (Enterococcus faecalis [9]) [µg/mL]	zone of inhibition at 500 µg/mL (Enterococcus faecalis [10]) [mm]	MIC (Staphylococcus aureus [11]) [µg/mL]	zone of inhibition at 500 µg/mL (Staphylococcus aureus [12]) [mm]	MBC (Enterococcus faecalis [13]) [µg/mL]	diameter of the inhibition zone (DIZ) (Candida albicans [2])	MIC (Candida albicans [4])	MIC (Aspergillus brasiliensis [5]; time 3.0 day)	MBC (Staphylococcus aureus [14]) [µg/mL]	diameter of the inhibition zone (DIZ) (Aspergillus brasiliensis [6])	MBC (Escherichia coli [15]) [µg/mL]	MBC (Salmonella typhimurium [16]) [µg/mL]
CCOC(=O)C1=C(N)OC(c2ccccc2)=C(C(C)=O)C12C(=O)Nc1ccc(S(=O)(=O)N3CCCCC3)cc12 (stereo not drawn)	17.8 (≈ 32.2 µM)	13	88.3 (≈ 160 µM)	62.5 (≈ 113 µM)	125 (≈ 227 µM)	17	20	15	17.8 (≈ 32.2 µM)	20	88.3 (≈ 160 µM)	18	–	–	–	–	–	–	–	–
CCOC(=O)C1=C(C)OC(N)=C(C#N)C12C(=O)Nc1ccc(S(=O)(=O)N3CCOCC3)cc12 (stereo not drawn)	31.2 (≈ 65.9 µM)	18	133 (≈ 281 µM)	88.3 (≈ 186 µM)	167 (≈ 351 µM)	10	19	15	88.3 (≈ 186 µM)	14	133 (≈ 281 µM)	16	–	–	–	–	–	–	–	–
CCOC(=O)C1=C(c2ccccc2)OC(N)=C(C#N)C12C(=O)Nc1ccc(S(=O)(=O)N3CCOCC3)cc12 (stereo not drawn)	88.3 (≈ 165 µM)	16	133 (≈ 248 µM)	62.5 (≈ 116 µM)	125 (≈ 233 µM)	12	14	11	7.81 (≈ 14.6 µM)	19	125 (≈ 233 µM)	13	–	–	–	–	–	–	–	–
CC(=O)C1=C(C)OC(N)=C(C#N)C12C(=O)Nc1ccc(S(=O)(=O)N3CCCCC3)cc12 (stereo not drawn)	62.5 (≈ 141 µM)	16	88.8 (≈ 201 µM)	71.1 (≈ 161 µM)	125 (≈ 282 µM)	14	15	15	167 (≈ 376 µM)	15	167 (≈ 376 µM)	8	–	–	–	–	–	–	–	–
CN(C)[C@@H]1C(O)=C(C(N)=O)C(=O)[C@@]2(O)C(O)=C3C(=O)c4c(O)cccc4[C@@](C)(O)[C@H]3C[C@@H]12 [TETRACYCLINE]	15.6 (≈ 35.1 µM)	–	62.5 (≈ 141 µM)	–	–	–	23	21	62.5 (≈ 141 µM)	22	62.5 (≈ 141 µM)	25	37.5 (≈ 84.4 µM)	inactive	inactive	inactive	87.5 (≈ 197 µM)	inactive	18.7 (≈ 42.2 µM)	81.2 (≈ 183 µM)
CCOC(=O)/C(C#N)=C1\C(=O)Nc2ccc(S(=O)(=O)N3CCCCC3)cc21	62.5 (≈ 160 µM)	16	125 (≈ 321 µM)	125 (≈ 321 µM)	88.3 (≈ 227 µM)	15	14	11	133 (≈ 342 µM)	15	167 (≈ 428 µM)	7	–	–	–	–	–	–	–	–
CCOC(=O)C1=C(N)OC(C)=C(C(C)=O)C12C(=O)Nc1ccc(S(=O)(=O)N3CCCCC3)cc12 (stereo not drawn)	17.8 (≈ 36.3 µM)	13	71.1 (≈ 145 µM)	71.1 (≈ 145 µM)	143 (≈ 292 µM)	10	16	15	31.2 (≈ 63.8 µM)	20	125 (≈ 255 µM)	10	–	–	–	–	–	–	–	–
